Speed of sound and mass density data for 7 compounds are collected here from the NIST ThermoML archive (doi:10.1016/j.tca.2014.11.009).

SMILES strings stand for the structures. Numbers after ± are expanded uncertainties.

A short description of data set [1]: xn = mol fraction of the nth substance listed. To be noted: 100 kPa, Liquid, x2 = 0; for speed of sound: Frequency=3 MHz, Sing-around technique in a fixed-path interferometer; for mass density: Vibrating tube method.
The conditions of data set [2]: 100 kPa, Liquid; for speed of sound: Frequency=3 MHz, Sing-around technique in a fixed-path interferometer; for mass density: Vibrating tube method.

In the case of `CCC(C)O` (stereo unspecified) [butan-2-ol] + O=Cc1ccco1, the speed of sound (as a rule, how fast a sound wave travels through the sample) was 1268.4 ± 1.6 m/s in data set [1] (283.15 K), 1232.4 ± 1.6 m/s in data set [1] (293.15 K), 1196.1 ± 1.6 m/s in data set [1] (303.15 K) and 1159.5 ± 1.6 m/s in data set [1] (313.15 K). The mass density (commonly mass per unit of volume) in data set [1] (283.15 K) amounted to 815.39 ± 0.24 kg/m3; in data set [1] (293.15 K), 807.34 ± 0.24 kg/m3; in data set [1] (303.15 K), 798.99 ± 0.24 kg/m3; in data set [1] (313.15 K), 790.28 ± 0.24 kg/m3.
As to `CCCCO` [butan-1-ol], the speed of sound in data set [2] (283.15 K) worked out at 1291.4 ± 1.6 m/s; in data set [2] (293.15 K) it was 1257.5 ± 1.6 m/s; in data set [2] (303.15 K) it was 1223.6 ± 1.6 m/s; in data set [2] (313.15 K) it was 1190.2 ± 1.6 m/s. In addition, the mass density in data set [2] (283.15 K) stood at 817.21 ± 0.24 kg/m3; in data set [2] (293.15 K), 809.65 ± 0.24 kg/m3; in data set [2] (303.15 K), 802 ± 0.24 kg/m3; in data set [2] (313.15 K), 794.21 ± 0.24 kg/m3.
In the case of `O=Cc1ccco1` [2-furaldehyde], the speed of sound in data set [2] (283.15 K) is 1495.4 ± 1.6 m/s; in data set [2] (293.15 K) it was 1458.8 ± 1.6 m/s; in data set [2] (303.15 K), 1422.5 ± 1.6 m/s; in data set [2] (313.15 K), 1386.5 ± 1.6 m/s. Moreover, the mass density was found to be 1169.93 ± 0.37 kg/m3 in data set [2] (283.15 K), 1159.33 ± 0.36 kg/m3 in data set [2] (293.15 K), 1148.69 ± 0.35 kg/m3 in data set [2] (303.15 K) and 1138.01 ± 0.34 kg/m3 in data set [2] (313.15 K).
For `CCCCO` [butan-1-ol] + O=Cc1ccco1, the speed of sound in data set [1] (283.15 K) was 1291.4 ± 1.6 m/s; in data set [1] (293.15 K), 1257.5 ± 1.6 m/s; in data set [1] (303.15 K), 1223.6 ± 1.6 m/s; in data set [1] (313.15 K) it was 1190.2 ± 1.6 m/s. Further, the mass density is given as 817.21 ± 0.24 kg/m3 in data set [1] (283.15 K), 809.65 ± 0.24 kg/m3 in data set [1] (293.15 K), 802 ± 0.24 kg/m3 in data set [1] (303.15 K) and 794.21 ± 0.24 kg/m3 in data set [1] (313.15 K).
For the compound `CCO` [ethanol], the speed of sound in data set [2] (283.15 K) amounted to 1197.3 ± 1.6 m/s; in data set [2] (293.15 K), 1162.5 ± 1.6 m/s; in data set [2] (303.15 K), 1128.3 ± 1.6 m/s; in data set [2] (313.15 K), 1094.6 ± 1.6 m/s. Further, the mass density is given as 798.51 ± 0.24 kg/m3 in data set [2] (283.15 K), 789.99 ± 0.24 kg/m3 in data set [2] (293.15 K), 781.38 ± 0.24 kg/m3 in data set [2] (303.15 K) and 772.64 ± 0.24 kg/m3 in data set [2] (313.15 K).
Regarding `CCO` [ethanol] + O=Cc1ccco1, the speed of sound in data set [1] (283.15 K) is 1197.3 ± 1.6 m/s; in data set [1] (293.15 K), 1162.5 ± 1.6 m/s; in data set [1] (303.15 K), 1128.3 ± 1.6 m/s; in data set [1] (313.15 K), 1094.6 ± 1.6 m/s. For the same compound, the mass density in data set [1] (283.15 K) was determined as 798.51 ± 0.24 kg/m3; in data set [1] (293.15 K) it was 789.99 ± 0.24 kg/m3; in data set [1] (303.15 K), 781.38 ± 0.24 kg/m3; in data set [1] (313.15 K), 772.64 ± 0.24 kg/m3.
Regarding `CCC(C)O` (stereo unspecified) [butan-2-ol], the speed of sound worked out at 1268.4 ± 1.6 m/s in data set [2] (283.15 K), 1232.4 ± 1.6 m/s in data set [2] (293.15 K), 1196.1 ± 1.6 m/s in data set [2] (303.15 K) and 1159.5 ± 1.6 m/s in data set [2] (313.15 K). The mass density was determined as 815.39 ± 0.24 kg/m3 in data set [2] (283.15 K), 807.34 ± 0.24 kg/m3 in data set [2] (293.15 K), 798.99 ± 0.24 kg/m3 in data set [2] (303.15 K) and 790.28 ± 0.24 kg/m3 in data set [2] (313.15 K).
